Data reported in ChEMBL document CHEMBL5046250, “Discovery of Sortase A covalent inhibitors with benzofuranene cyanide structures as potential antibacterial agents against Staphylococcus aureus” (Eur J Med Chem, 2022).
Calls of active or inactive are those of the source. The rule behind the calls is not given here.

How the values were obtained:
[1] = Inhibition of Staphylococcus aureus sortase A using Abz-LPATG-Dap(DNP)-NH2 as substrate preincubated for 1 hr followed by substrate addition by FRET assay
Staphylococcus aureus [2] = assay: Binding affinity to staphylococcus aureus sortase A assessed as covalent adduct formation by UPLC-TOF-MS analysis
Staphylococcus aureus [3] = assay: Binding affinity to staphylococcus aureus sortase A assessed as covalent adduct formation at Cys184 by LC-MS/MS analysis
Staphylococcus aureus [4] = assay: Binding affinity to staphylococcus aureus sortase A assessed as increase in molecular mass by LC-MS/MS analysis
Staphylococcus aureus [5] = assay: Antibiofilm activity against Staphylococcus aureus assessed as inhibition of biofilm formation measured after 15 to 18 hrs by crystal violet staining assay; assay type: functional, organism-based
Staphylococcus aureus [6] = assay: Antibacterial activity against Staphylococcus aureus assessed as inhibition of bacterial invasion in HEK293T cells at 100 uM measured after 2 hrs by flow cytometry relative to control; assay type: functional, HEK-293T; parameters: scale not given: the % may be the effect or the level left
Staphylococcus aureus [7] = assay: Antibacterial activity against Staphylococcus aureus assessed as inhibition of bacterial invasion in HEK293T cells at 50 uM measured after 2 hrs by flow cytometry relative to control; assay type: functional, HEK-293T; parameters: scale not given: the % may be the effect or the level left
Staphylococcus aureus [8] = assay: Antibacterial activity against Staphylococcus aureus assessed as inhibition of bacterial invasion in HEK293T cells at 25 uM measured after 2 hrs by flow cytometry relative to control; assay type: functional, HEK-293T; parameters: scale not given: the % may be the effect or the level left
Staphylococcus aureus [9] = assay: Antibacterial activity against Staphylococcus aureus assessed as inhibition of bacterial invasion in HEK293T cells at 12.5 uM measured after 2 hrs by flow cytometry relative to control; assay type: functional, HEK-293T; parameters: scale not given: the % may be the effect or the level left
Staphylococcus aureus [10] = assay: Antibacterial activity against Staphylococcus aureus assessed as inhibition of bacterial invasion in HEK293T cells at 6.25 uM measured after 2 hrs by flow cytometry relative to control; assay type: functional, HEK-293T; parameters: scale not given: the % may be the effect or the level left
Staphylococcus aureus [11] = assay: Inhibition of Staphylococcus aureus sortase A assessed as reduction in SpA expression at 100 uM measured after overnight incubation by flow cytometry relative to control
Staphylococcus aureus [12] = assay: Antibiofilm activity against Staphylococcus aureus assessed as inhibition of biofilm formation measured after 15 to 18 hrs in the presence of quercetin by crystal violet staining assay; assay type: functional, organism-based

Row | IC50 [1] | Compound | further results
1 | 6 µM | CC(C)CNC(=O)c1c(-c2ccc(/C(C#N)=C/c3ccc(OCc4ccccc4)cc3)cc2)oc2ccccc12 | 
2 | 9.8 µM | CC(C)CNC(=O)c1c(-c2ccc(/C(C#N)=C/c3ccc(Cl)cc3)cc2)oc2ccccc12 | 
3 | 19.1 µM | CC(C)CNC(=O)c1c(-c2ccc(/C(C#N)=C/c3ccc(Br)cc3)cc2)oc2ccccc12 | 
4 | 15.5 µM | COc1ccc(OC)c(/C=C(\C#N)c2ccc(-c3oc4ccc(Cl)cc4c3C(=O)NCC(C)C)cc2)c1 | 
5 | > 100 µM | Cc1ccc(/C=C(\C#N)c2ccc(-c3oc4ccc(Cl)cc4c3C(=O)NCC(C)C)cc2)cc1C | 
6 | 15.2 µM | C=C(C#N)c1ccc(-c2oc3ccccc3c2C(=O)NCC(C)C)cc1 | Activity (Staphylococcus aureus [2]): Active; Activity (Staphylococcus aureus [3]): Active; Activity (Staphylococcus aureus [4]): 344 Da
7 | 15 µM | CC(C)CNC(=O)c1c(-c2ccc(C(C#N)Cc3ccc(OCc4ccccc4)cc3)cc2)oc2ccccc12 (stereo unspecified) | 
8 | 9.6 µM | COc1ccc(/C=C(\C#N)c2ccc(-c3oc4ccccc4c3C(=O)NCC(C)C)cc2)cc1OC | 
9 | 17.5 µM | Cc1ccc(/C=C(\C#N)c2ccc(-c3oc4ccccc4c3C(=O)NCC(C)C)cc2)cc1C | 
10 | 12.1 µM | COc1ccc(/C=C(\C#N)c2ccc(-c3oc4c(OC)cccc4c3C(=O)NCC(C)C)cc2)cc1 | 
11 | 13.8 µM | CCc1ccc(/C=C(\C#N)c2ccc(-c3oc4ccc(Cl)cc4c3C(=O)NCC(C)C)cc2)cc1 | 
12 | > 100 µM | COc1cccc2c(C(=O)NCC(C)C)c(-c3ccc(/C(C#N)=C/c4ccc(C)c(C)c4)cc3)oc12 | 
13 | 3.3 µM | CC(C)CNC(=O)c1c(-c2ccc(/C(C#N)=C/c3ccc(OCc4ccccc4)c(OCc4ccccc4)c3)cc2)oc2ccccc12 | IC50 (Staphylococcus aureus [5]): 2.1 µM; Activity (Staphylococcus aureus [6]): 24%; Activity (Staphylococcus aureus [7]): 19.1%; Activity (Staphylococcus aureus [8]): 16%; Activity (Staphylococcus aureus [9]): 7.4%; Activity (Staphylococcus aureus [10]): 2.9%; inhibition (Staphylococcus aureus [11]): 26.5%; IC50 (Staphylococcus aureus [12]): 2.08 µM
14 | 16.4 µM | CC(C)CNC(=O)c1c(-c2ccc(/C(C#N)=C/c3ccc(Br)cc3)cc2)oc2ccc(Cl)cc12 | 
15 | 32.2 µM | Cc1cc(C)c(/C=C(\C#N)c2ccc(-c3oc4ccccc4c3C(=O)NCC(C)C)cc2)c(C)c1 | 
16 | 11.9 µM | COc1cccc2c(C(=O)NCC(C)C)c(-c3ccc(/C(C#N)=C/c4ccccc4)cc3)oc12 | 
17 | 5.9 µM | COc1cccc2c(C(=O)NCC(C)C)c(-c3ccc(/C(C#N)=C/c4ccc(Cl)cc4)cc3)oc12 | 
18 | 11.9 µM | COc1ccc(/C=C(\C#N)c2ccc(-c3oc4ccccc4c3C(=O)NCC(C)C)cc2)cc1 | 
19 | 15.5 µM | COc1cccc2c(C(=O)NCC(C)C)c(-c3ccc(/C(C#N)=C/c4ccc(Br)cc4)cc3)oc12 | 
20 | 37.9 µM | Cc1cc(C)c(/C=C(\C#N)c2ccc(-c3oc4ccc(Cl)cc4c3C(=O)NCC(C)C)cc2)c(C)c1 | 

Row | IC50 [1] | Compound | further results
21 | 6.8 µM | CC(C)CNC(=O)c1c(-c2ccc(/C(C#N)=C/c3ccc(Cl)cc3)cc2)oc2ccc(Cl)cc12 | IC50 (Staphylococcus aureus [5]): 54.2 µM; Activity (Staphylococcus aureus [6]): 4%
22 | 14.1 µM | Cc1ccc(/C=C(\C#N)c2ccc(-c3oc4ccccc4c3C(=O)NCC(C)C)cc2)cc1 | 
23 | 49.1 µM | COc1ccc(/C=C(\C#N)c2ccc(-c3oc4ccc(Cl)cc4c3C(=O)NCC(C)C)cc2)cc1OC | 
24 | 13.7 µM | CC(C)CNC(=O)c1c(-c2ccc(C(C#N)Cc3ccc(O)c(O)c3)cc2)oc2ccccc12 (stereo unspecified) | 
25 | 14.5 µM | COc1ccc(/C=C(\C#N)c2ccc(-c3oc4c(OC)cccc4c3C(=O)NCC(C)C)cc2)cc1OC | 
26 | 47.1 µM | Cc1ccc(/C=C(\C#N)c2ccc(-c3oc4ccc(Cl)cc4c3C(=O)NCC(C)C)cc2)cc1 | 
27 | 10.1 µM | COc1cccc2c(C(=O)NCC(C)C)c(-c3ccc(/C(C#N)=C/c4ccc(C)cc4)cc3)oc12 | 
28 | 8.8 µM | CC(C)CNC(=O)c1c(-c2ccc(/C(C#N)=C/c3ccccc3)cc2)oc2ccccc12 | IC50 (Staphylococcus aureus [5]): 19.7 µM; Activity (Staphylococcus aureus [6]): 17.9%
29 | 19.7 µM | CC(C)CNC(=O)c1c(-c2ccc(/C(C#N)=C/c3ccc(F)cc3)cc2)oc2ccccc12 | 
30 | 48.6 µM | CCc1ccc(/C=C(\C#N)c2ccc(-c3oc4c(OC)cccc4c3C(=O)NCC(C)C)cc2)cc1 | 
31 | 29.9 µM | CC(C)CNC(=O)c1c(-c2ccc(/C(C#N)=C/c3ccccc3)cc2)oc2ccc(Cl)cc12 | 
32 | 52.8 µM | COc1ccc(OC)c(/C=C(\C#N)c2ccc(-c3oc4c(OC)cccc4c3C(=O)NCC(C)C)cc2)c1 | 
33 | 21.8 µM | COc1ccc(OC)c(/C=C(\C#N)c2ccc(-c3oc4ccccc4c3C(=O)NCC(C)C)cc2)c1 | 
34 | 7.9 µM | CC(C)CNC(=O)c1c(-c2ccc(C(C#N)Cc3ccc(O)cc3)cc2)oc2ccccc12 (stereo unspecified) | IC50 (Staphylococcus aureus [5]): 14.3 µM; Activity (Staphylococcus aureus [6]): 2.8%
35 | 9.7 µM | CC(C)CNC(=O)c1c(-c2ccc(/C(C#N)=C/c3ccccc3C(=O)O)cc2)oc2ccccc12 | 
36 | 64.1 µM | COc1ccc(/C=C(\C#N)c2ccc(-c3oc4ccc(Cl)cc4c3C(=O)NCC(C)C)cc2)cc1 | 
37 | 12.2 µM | CC(C)CNC(=O)c1c(-c2ccc(/C(C#N)=C/c3ccc(C(F)(F)F)cc3)cc2)oc2ccccc12 | 
38 | 28.4 µM | COc1cccc2c(C(=O)NCC(C)C)c(-c3ccc(/C(C#N)=C/c4ccccc4C(=O)O)cc3)oc12 | 
39 | 9.4 µM | CCc1ccc(/C=C(\C#N)c2ccc(-c3oc4ccccc4c3C(=O)NCC(C)C)cc2)cc1 | 
